Laboratory results taken from patent US20060154984A1, “Therapeutic use of acyl glycerols and the nitrogen- and sulphur- containing analogues thereof” (priority 2003, published 2006).

Assays:
[1] = test system: LDL; assay: LDL oxidation by copper, conjugated diene formation (OD 234 nm); format: biochemical; conditions: 10^−4 M; for LDL oxidation rate (rate of conjugated diene formation): copper alone 3 nmol/min/mg of LDL; for increase in the lag phase: relative to copper alone; for decrease in the maximum amount of conjugated dienes formed: copper alone 496 nmol per mg of LDL
Protocol: Oxidation of LDL is an important modification which plays a major role in the onset and development of atherosclerosis (Jurgens, Hoff et al. 1987). […] Unless otherwise indicated, all reagents were from Sigma (St Quentin, France).
LDL were prepared as described by Lebeau et al. (Lebeau, Furman et al. 2000). The solutions of the test compounds were prepared at 10^−2 M in ethanol and diluted in PBS so that the final concentration ranged from 0.1 to 100 μM with a total ethanol concentration of 1% (VN).
Before oxidation, EDTA was removed from the LDL preparation by dialysis. The oxidation reaction was then carried out at 30° C. by adding 100 μl of 16.6 μM CuSO4 to 800 μl of LDL (125 μg protein/ml) and 100 μl of a test compound solution. The formation of dienes, the species to be followed, was measured by the optical density at 234 nm in the samples treated with the compounds in the presence or absence of copper. Optical density at 234 nm was measured every 10 minutes for 8 hours on a thermostated spectrophotometer (Kontron Uvikon 930). The analyses were carried out in triplicate. A compound was considered to have antioxidant activity when it shifted the lag phase latency relative to the control sample. […] FIG. 4 presents an example of the results obtained with the inventive compounds.

[2] = biological target: T1, PPARα (Homo sapiens, UniProt Q07869); assay: Gal4/PPARα transactivation system in HepG2 cells (luciferase reporter); format: cell-based; conditions: HepG2 cells transfected with Gal4/PPARα plasmids, 24 h
T1 construct: expressed in transfected cells; host or cells: HepG2
T1 sequence (Q07869 239-466 limits assumed): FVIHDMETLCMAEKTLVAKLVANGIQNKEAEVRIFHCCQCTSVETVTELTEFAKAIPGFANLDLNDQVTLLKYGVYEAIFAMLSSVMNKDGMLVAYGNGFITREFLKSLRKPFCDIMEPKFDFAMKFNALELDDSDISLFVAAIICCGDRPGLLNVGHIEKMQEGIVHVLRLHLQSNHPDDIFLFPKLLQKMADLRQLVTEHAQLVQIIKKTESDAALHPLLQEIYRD
Protocol: PPAR activation was tested in vitro in RK13 fibroblast cell lines or in a hepatocyte line HepG2 by measuring the transcriptional activity of chimeras composed of the DNA binding domain of the yeast gal4 transcription factor and the ligand binding domain of the different PPARs. The example below is given for HepG2 cells.
HepG2 cells were from ECACC (Porton Down, UK) and were grown in DMEM medium supplemented with 10% (VN) fetal calf serum, 100 U/ml penicillin (Gibco, Paisley, UK) and 2 mM L-glutamine (Gibco, Paisley, UK). The culture medium was changed every two days. Cells were kept at 37° C. in a humidified 95% air/5% CO2 atmosphere.
The plasmids pG5TkpGL3, PRL-CMV, pGal4-hPPARα, pGal4-hPPARγ and pGal4-f have been described by Raspe et al. (Raspe, Madsen et al. 1999). The pGal4-mPPARα and pGal4-hPPARβ constructs were obtained by cloning PCR-amplified DNA fragments corresponding to the DEF domains of the mouse PPARα and […] nuclear receptors, respectively, into the pGal4-f vector.
HepG2 cells were seeded in 24-well culture dishes at 5×10^4 cells/well and transfected for 2 hours with the reporter plasmid pG5TkpGL3 (50 ng/well), the expression vectors pGal4-f, pGal4-mPPARα, pGal4-hPPARα, pGal4-hPPARγ, or pGal4-hPPARβ (100 ng/well) and the transfection efficiency control vector pRL-CMV (1 ng/well) according to the previously described protocol (Raspe, Madsen et al. 1999), then incubated for 36 hours with the test compounds. At the end of the experiment, the cells were lysed (Gibco, Paisley, UK) and luciferase activity was determined with a Dual-Luciferase™ Reporter Assay System kit (Promega, Madison, Wis., USA) according to the supplier's instructions. The protein content of the cell extracts was then measured with the Bio-Rad Protein Assay kit (Bio-Rad, Munich, Germany) as directed by the supplier. […] FIG. 3 gives an example of the results obtained with the inventive compounds.
FIG. 3: HepG2 cells transfected with Gal4/PPARα plasmids were incubated with different concentrations (5, 15, 50 and 100 μM) of the inventive comopunds (Ex 2a, Ex 4a, Ex 4p, Ex 5a, Ex 7 and Ex 11) for 24 h and with different concentrations of the vehicle (PC) noted 1, 2, 3, 4 as controls for the 5, 15, 50 and 100 μM concentrations of the inventive compounds (according to the 4:1 (m/m) ratio described in example 2 (Method of preparation of the inventive compounds for in vitro studies)). The results are expressed as the induction factor (luminescent signal of treated cells divided by luminescent signal of untreated cells) after the different treatments. […] The induction factors for inventive compound Ex 4p were 35 at 100 μM, 44 at 50 μM, 36 at 15 μM and 24 at 5 μM. The induction factors for compound Ex 5a were 32 at 100 μM, 34 at 50 μM, 15 at 15 μM and 4 at 5 μM. Finally, inventive compound Ex 7 induced a 19-fold induction at 100 μM, 19 at 50 μM, 7 at 15 μM and 1.5 at 5 μM. In contrast, when the cells were incubated with the vehicle (PC liposome), no significant induction was observed.

Row | Molecule | melting point | induction factor (luminescent signal of treated cells divided by luminescent signal of untreated cells) ([2]; 5 μM) [fold] | induction factor (luminescent signal of treated cells divided by luminescent signal of untreated cells) ([2]; 15 μM) [fold] | induction factor (luminescent signal of treated cells divided by luminescent signal of untreated cells) ([2]; 50 μM) [fold] | induction factor (luminescent signal of treated cells divided by luminescent signal of untreated cells) ([2]; 100 μM) [fold] | LDL oxidation rate (rate of conjugated diene formation) [1] | increase in the lag phase [1] [%] | decrease in the maximum amount of conjugated dienes formed [1] [%] | lag phase for conjugated diene formation ([1]; copper alone 104 minutes) [min]
1 | CCCCCCCCCCCCCCCC(=S)OC(CN)CN.Cl.Cl | 224 °C (dec.) |  |  |  |  |  |  |  | 
2 | 1,2-(dipalmitoyloxy)-3-tetradecylthioacetylaminopropane [Ex 9] |  |  |  |  |  | did not significantly alter | 33 |  | 
3 | CCCCCCCCCCCCCCCC(=O)OCC(COC(=O)CCCCCCCCCCCCCCC)OC(=O)CSCCCCCCCCCCCCCC [Ex 4g, 1,3-dipalmitoyl-2-tetradecylthioacetylglycerol] |  |  |  |  |  | 1.8 nmol/min/mg of LDL | 170 | 31 | 282
4 | CCCCC/C=C\C/C=C\CCCCCCCC(=O)OCC(COC(=O)CCCCCCC/C=C\C/C=C\CCCCC)OC(=O)CSCCCCCCCCCCCCCC [Ex 4h, 1,3-dilinoleoyl-2-tetradecylthioacetylglycerol] |  |  |  |  |  | 2.5 nmol/min/mg of LDL | 43 | 24 | 
5 | CCCCCCCCCCCCCCCC(=O)OC(COC(=O)CSCCCCCCCCCCCCCC)COC(=O)CSCCCCCCCCCCCCCC [Ex 4o, 1.3-ditetradecylthioacetyl-2-palmitoyl-glycerol] |  |  |  |  |  | did not significantly alter | 37 |  | 
6 | CCCCCCCCCCCCCCSCC(=O)NCC(O)CO (stereo not drawn) [Ex 7, 3-(tetradecylthioacetylamino)propane-1,2-diol] |  | 1.5 | 7 | 19 | 19 |  |  |  | 

Now from value to molecule, other results behind:

Row | melting point | induction factor (luminescent signal of treated cells divided by luminescent signal of untreated cells) ([2]; 5 μM) [fold] | induction factor (luminescent signal of treated cells divided by luminescent signal of untreated cells) ([2]; 15 μM) [fold] | induction factor (luminescent signal of treated cells divided by luminescent signal of untreated cells) ([2]; 50 μM) [fold] | induction factor (luminescent signal of treated cells divided by luminescent signal of untreated cells) ([2]; 100 μM) [fold] | Molecule | LDL oxidation rate (rate of conjugated diene formation) [1] | increase in the lag phase [1] [%] | decrease in the maximum amount of conjugated dienes formed [1] [%] | lag phase for conjugated diene formation ([1]; copper alone 104 minutes) [min]
7 |  | 17 | 31 | 41 | 62 | CCCCCCCCCCCCCCSCC(=O)OCC(O)CO (stereo not drawn) [Ex 2a, 1-tetradecylthioacetylglycerol] | did not significantly alter | 67 |  | 
8 |  | 24 | 36 | 44 | 35 | CCCCCCCCCCCCCCSCC(=O)OC(COC(C)=O)COC(C)=O [Ex 4p, 1,3-diacetyl-2-tetradecylthioacetylglycerol] |  |  |  | 
9 |  | 4 | 15 | 34 | 32 | CCCCCCCCCCCCCCSCC(=O)NC(CO)CO [Ex 5a, 2-tetradecylthioacetamidopropane-1.3-diol] |  |  |  | 
